These results are taken from patent publication US10005741B2, “Therapeutic compounds” (ARIZONA BOARD OF REGENTS ON BEHALF OF ARIZONA STATE …, priority 2014, dated 2018).

One data set deals with T1, human RXR (Homo sapiens, UniProt P19793).
T1 construct: expressed in transfected cells; host or cells: HCT-116 cells
T1 sequence (P19793 1-462) 1: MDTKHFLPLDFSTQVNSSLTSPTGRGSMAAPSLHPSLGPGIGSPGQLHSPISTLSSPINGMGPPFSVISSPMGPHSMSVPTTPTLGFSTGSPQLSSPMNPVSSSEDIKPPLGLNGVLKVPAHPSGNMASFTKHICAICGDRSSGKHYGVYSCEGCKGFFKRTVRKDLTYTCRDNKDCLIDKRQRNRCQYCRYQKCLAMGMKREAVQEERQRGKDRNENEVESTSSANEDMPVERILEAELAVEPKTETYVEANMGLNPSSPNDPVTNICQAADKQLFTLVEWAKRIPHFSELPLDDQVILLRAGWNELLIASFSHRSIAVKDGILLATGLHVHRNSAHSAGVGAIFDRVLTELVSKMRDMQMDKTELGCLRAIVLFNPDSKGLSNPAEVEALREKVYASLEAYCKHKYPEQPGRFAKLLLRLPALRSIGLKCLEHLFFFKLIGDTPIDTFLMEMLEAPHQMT
T1 sequence (P19793 1-462) 2: T1 sequence (P19793 1-462) 1
Put plainly: Test A: RXR mammalian two-hybrid luciferase assay in transfected HCT-116 cells. Type of data set: cell-based. Particulars: RXR mammalian two-hybrid system, luciferase reporter, 24 hours treatment, dose-response 1x10^-9 to 0.3x10^-5 M. The protocol: HCT-116 cells were plated overnight at 80,000 cells/well in a 24 well plate and maintained as described above. The cells were co-transfected using a human RXR binding domain (BD) vector, a human RXR activation domain (AD) vector, a luciferase reporter gene containing BD-binding sites and renilla control plasmid. Transfection was achieved via 2 μL/well of Express-IN transfection reagent which was allowed to incubate for 24 hours with the cells. […] The amount of rexinoid activity at each concentration was measured using the same luciferase assay described above, and EC50 values were derived from dose-response curves of ligand concentration versus normalized luciferase activity.
A general note: In a reporter assay the amount or activity of a reporter protein is the signal.

What is called melting point is the temperature of the solid-liquid transition. Usually EC50 stands for the concentration that produces a half-maximal response. A low value points to a more potent agent.

For `CCN(c1ccc(C(=O)O)cc1)c1cc2c(cc1C)C(C)(C)CCC2(C)C` [Compound A61, 4-(ethyl(3,5,5,8,8-pentamethyl-5,6,7,8-tetrahydronaphthalen-2-yl)amino)benzoic acid], the melting point lay in the range of 252.4 to 256.8 °C.
Consider `Cc1cc2c(cc1-c1cncc(/C=C/C(=O)O)c1)C(C)(C)CCC2(C)C` [Compound A45, (E)-3-(5-(3,5,5,8,8-pentamethyl-5,6,7,8-tetrahydronaphthalen-2-yl)pyridin-3-yl)acrylic acid], for which the midpoint of the response on human RXR, the EC50, lay at 710 nM.
On the same count and under the same terms, with `Cc1cc2c(cc1-n1c(C(F)(F)F)nc3cc(C(=O)O)ccc31)C(C)(C)CCC2(C)C` [Compound A48] the figure was 20 nM.
In turn, `CCN(c1ccc(C(=O)O)cc1)c1ccc2c(c1)C(C)(C)CCC2(C)C` [Compound A63, 4-(ethyl(5,5,8,8-tetramethyl-5,6,7,8-tetrahydronaphthalen-2-yl)amino)benzoic acid] came in with a melting point of 247.8 to 250.6 °C.
`CCN(c1cnc(C(=O)O)cn1)c1cc2c(cc1C)C(C)(C)CCC2(C)C` [Compound A59, 5-(ethyl(3,5,5,8,8-pentamethyl-5,6,7,8-tetrahydronaphthalen-2-yl)amino)pyrazine-2-carboxylic acid] had a melting point of 203.6 to 205.1 °C.
Still for that read-out and setting: the figure for `CCN(c1ccc(C(=O)O)c(F)c1)c1ccc2c(c1)C(C)(C)CCC2(C)C` [Compound A62, 4-(ethyl(5,5,8,8-tetramethyl-5,6,7,8-tetrahydronaphthalen-2-yl)amino)-2-fluorobenzoic acid] is 252.4 to 256.8 °C; for `CCN(c1ccc2c(c1)C(C)(C)CCC2(C)C)c1cnc(C(=O)O)cn1` [Compound A58, 5-(ethyl(5,5,8,8-tetramethyl-5,6,7,8-tetrahydronaphthalen-2-yl)amino)pyrazine-2-carboxylic acid] it is 213.1 to 214.4 °C.
As for `Cc1cnc(/C=C/C(=O)O)cc1-c1cc2c(cc1C)C(C)(C)CCC2(C)C` [Compound A42], at human RXR, the EC50 is 3.7 nM.
Still for that read-out and setting: with `Cc1cc2c(cc1-c1nc(/C=C/C(=O)O)ccc1C)C(C)(C)CCC2(C)C` [Compound A46, (E)-3-(5-methyl-6-(3,5,5,8,8-pentamethyl-5,6,7,8-tetrahydronaphthalen-2-yl)pyridin-2-yl)acrylic acid] the figure was 305 nM.
`CCN(c1ccc(C(=O)O)c(F)c1)c1cc2c(cc1C)C(C)(C)CCC2(C)C` [Compound A60, 4-(ethyl(3,5,5,8,8-pentamethyl-5,6,7,8-tetrahydronaphthalen-2-yl)amino)-2-fluorobenzoic acid] had a melting point of 241.4 to 243.8 °C.
In turn, `CCN(c1ncc(C(=O)O)cn1)c1cc2c(cc1C)C(C)(C)CCC2(C)C` [Compound A57, 2-(ethyl(3,5,5,8,8-pentamethyl-5,6,7,8-tetrahydronaphthalen-2-yl)amino)pyrimidine-5-carboxylic acid] came in with a melting point of 231.9 to 233.1 °C.
